Source: ChEMBL document CHEMBL3627690, “Scaffold-Hopping and Structure-Based Discovery of Potent, Selective, And Brain Penetrant N-(1H-Pyrazol-3-yl)pyridin-2-amine Inhibitors of Dual Leucine Zipper Kinase (DLK, MAP3K12)” (J Med Chem, 2015)

How the values were obtained:
human MDR1 [1] = experiment: Permeability across apical to basolateral side in MDCK cells transfected with human MDR1 at 5 uM by LC-MS/MS analysis; details: dog
human MDR1 [2] = experiment: Efflux ratio of permeability across basolateral to apical over apical to basolateral side in MDCK cells transfected with human MDR1 at 5 uM by LC-MS/MS analysis; details: dog
[3] = target: T1, Mitogen-activated protein kinase kinase kinase 12 (Homo sapiens, UniProt Q12852); experiment: Inhibition of N-terminally GST- tagged human DLK catalytic domain (1 to 520 amino acids) using N-terminally HIS-tagged MKK4 K131M as substrate incubated for 60 mins by TR-FRET assay
T1 sequence (Q12852 whole entry): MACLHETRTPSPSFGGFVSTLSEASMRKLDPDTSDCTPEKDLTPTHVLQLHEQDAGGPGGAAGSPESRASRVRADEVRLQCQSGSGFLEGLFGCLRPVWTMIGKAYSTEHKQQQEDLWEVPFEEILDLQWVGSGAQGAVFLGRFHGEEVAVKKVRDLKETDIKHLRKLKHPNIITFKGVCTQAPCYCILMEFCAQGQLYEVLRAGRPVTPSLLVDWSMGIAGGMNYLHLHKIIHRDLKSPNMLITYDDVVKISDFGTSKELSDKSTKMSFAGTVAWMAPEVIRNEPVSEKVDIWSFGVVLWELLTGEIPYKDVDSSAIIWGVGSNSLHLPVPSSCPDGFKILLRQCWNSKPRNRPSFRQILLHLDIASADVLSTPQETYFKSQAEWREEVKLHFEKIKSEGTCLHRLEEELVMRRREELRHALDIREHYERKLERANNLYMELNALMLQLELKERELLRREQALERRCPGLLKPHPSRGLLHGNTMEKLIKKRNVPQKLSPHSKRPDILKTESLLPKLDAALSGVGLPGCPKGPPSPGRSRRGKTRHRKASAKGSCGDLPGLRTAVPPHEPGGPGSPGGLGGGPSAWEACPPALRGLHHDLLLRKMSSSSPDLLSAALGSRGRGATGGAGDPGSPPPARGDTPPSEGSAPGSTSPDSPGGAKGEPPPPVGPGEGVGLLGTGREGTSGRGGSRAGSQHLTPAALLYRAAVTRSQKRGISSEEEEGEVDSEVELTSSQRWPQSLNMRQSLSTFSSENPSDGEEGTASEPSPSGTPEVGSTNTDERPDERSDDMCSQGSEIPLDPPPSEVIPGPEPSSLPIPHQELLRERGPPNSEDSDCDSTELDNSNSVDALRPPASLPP

[4] = target: T1, Mitogen-activated protein kinase kinase kinase 12; experiment: Inhibition of Dox inducible human DLK transfected in HEK293 cells assessed as reduction in JNK phosphorylation incubated for 5.5 hrs measured by Hoechst 33342 staining based imaging analysis; type: cell-based

Row | Structure (SMILES) | Papp A→B at 5 µM (human MDR1 [1]) [×10⁻⁶ cm/s] | efflux ratio at 5 µM (human MDR1 [2]) | Ki [3] [nM] | IC50 [4] [nM]
1 | CC(C)n1nc(Nc2cc(C(F)(F)F)ccn2)cc1C1CCNCC1 | 0.5 | 36 | 145 | 
2 | N#Cc1ccnc(Nc2cc(C3CN(C4COC4)C3)n(C3CCCC3)n2)c1 | 4.9 | 3.3 | 48 | 459
3 | N#Cc1ccnc(Nc2cc(C3CCOC3)n(C3CCCC3)n2)c1 (racemic) | 2.7 | 1 | 54 | 698
4 | N#Cc1ccnc(Nc2cc(C3CCN(C4COC4)C3)n(C3CCCC3)n2)c1 (racemic) | 5.6 | 3.7 | 25 | 632
5 | CC(C)n1nc(Nc2ccc(C(F)(F)F)cn2)cc1C1CCNCC1 |  |  | > 1600 | 
6 | N#Cc1ccnc(Nc2cn(C3CCN(C4COC4)CC3)c(C3CCCC3)n2)c1 |  |  | > 1600 | 
7 | N#Cc1ccnc(Nc2cc(C3CCN(C4COC4)CC3)n(C3CCOCC3)n2)c1 | 1.7 | 15 | 593 | 
8 | N#Cc1ccnc(Nc2cc(C3CCN(C4COC4)CC3)n(C3CCOC3)n2)c1 (racemic) | 1.9 | 7.6 | 378 | 
9 | N#Cc1ccnc(Nc2cc(C3CCN(C4COC4)CC3)n(C3CCC(F)(F)C3)n2)c1 (racemic) | 4.2 | 5.8 | 48 | 721
10 | CC(C)n1nc(Nc2cc(C#N)ccn2)cc1C1CCNCC1 |  |  | 160 | 
11 | N#Cc1ccnc(Nc2nc(C3CC3)c(C3CCN(C4COC4)CC3)s2)c1 |  |  | 569 | 8600
12 | N#Cc1ccnc(Nc2cc(C3CCN(C4COC4)CC3)n(CC3CCC3)n2)c1 | 1.8 |  | 133 | 1400
13 | CC(C)n1nc(Nc2ccc(C#N)cn2)cc1C1CCNCC1 |  |  | > 1600 | 
